The values that follow come from US20050107432A1, “Sigma receptor binder containing indanone derivative” (priority 2002, published 2005).

Structures are written as SMILES. Structures can show the parent of a compound that is named as a salt.

One experiment addresses Sigma receptor. The experiment can be described thus: Sigma receptor binding assay (3H-DTG, guinea pig brain crude membrane fraction). To be noted: inhibition of 3H-DTG binding to guinea pig brain crude membrane fraction, 25° C., 1 hour. The method, then:
Sigma Receptor Binding Assay
(1) Preparation of Receptor
Ten male guinea pigs (Crj, Hartley, from Charles River Japan, Inc.) (body weight: 234 g to 260 g) were decapitated, exsanguinated and died. The brain was immediately removed, homogenized with ten volumes of 50 mM Tris-HCl (pH 7.4) using a Teflon homogenizer and was centrifuged at a rate of 50000× g at 4° C. for 20 minutes. The washing procedure was repeated once more under the same conditions, and the resulting crude membrane fraction was subjected to the assay.
The filter paper was transferred to a vial for radioactivity measurement, mixed with 5 mL of a liquid scintillation cocktail (Atomlight, from PACKARD), and the radioactivity on the filter was determined by a liquid scintillation counter (Model 1500, from PACKARD) for 2 minutes. The specific binding and the non-specific binding in the absence of the test compound were determined in the same way as above except for using 50% DMSO solution instead of the test compound and using a 100 μM Haloperidol solution instead of the test compound, respectively.
(3) Determination of Inhibition
The inhibitions of the test compound at individual concentrations were determined from the ratio of the specific binding in the presence of the test compound to the specific binding in the absence thereof. The dose-response curve was regressed according to a logit-log model in which the ratio of the specific binding in the presence of the test compound to the specific binding in the absence thereof was subjected to logit transformation and plotted against the common logarithm value of each concentration.
Compound `Cl.O=C1c2ccccc2CC1CC1CCN(Cc2ccccc2)CC1` (centres unmarked) [Example 27, 1-Benzyl-4-[(1-indanon)-2-yl]methylpiperidine hydrochloride] yielded an IC50 of 1.7 nM.

Take `CCOc1cc2c(cc1OCC)C(=O)C(F)(CC1CCN(Cc3cccc(F)c3)CC1)C2` (centres unmarked) [Example 41, 1-(3-fluorobenzyl)-4-[(5,6-diethoxy-2-fluoro-1-indanon)-2-yl]methylpiperidine hydrochloride]: the half-inhibitory concentration (IC50) was 3 nM.

In turn, `CCOc1cc2c(cc1OCC)C(=O)C(Cl)(CC1CCN(Cc3ccccc3)CC1)C2.Cl` (centres unmarked) [Example 68, 1-Benzyl-4-[(5,6-diethoxy-2-chloro-1-indanon)-2-yl]methylpiperidine hydrochloride] registered an IC50 of 2.6 nM.

`CCOc1cc2c(cc1OCC)C(=O)C(F)(CC1CCN(CC3CCCCCC3)CC1)C2` (centres unmarked) [Example 51, 1-cycloheptylmethyl-4-[(5,6-diethoxy-2-fluoro-1-indanon)-2-yl]methylpiperidine hydrochloride] returned an IC50 of 1.1 nM.

The compound `CCOc1cc2c(cc1OCC)C(=O)C(F)(CC1CCN(Cc3ccccc3Cl)CC1)C2` (centres unmarked) [Example 43, 1-(2-chlorobenzyl)-4-[(5,6-diethoxy-2-fluoro-1-indanon)-2-yl]methylpiperidine hydrochloride] displayed a 50% inhibitory concentration (IC50) of 1.5 nM.

For `COc1cc2c(cc1OC)C(=O)C(CCCC1CCN(Cc3ccccc3)CC1)C2.Cl` (centres unmarked) [Example 33, 1-Benzyl-4-[3-[(5,6-dimethoxy-1-indanon)-2-yl]propyl]piperidine hydrochloride], the 50% inhibitory concentration (IC50) turned out to be 7.6 nM.

Compound `CCCOc1cc2c(cc1OCCC)C(=O)C(F)(CC1CCN(Cc3ccccc3)CC1)C2.Cl` (centres unmarked) [Example 58, 1-Benzyl-4-[[5,6-di(1-propyloxy)-2-fluoro-1-indanon]-2-yl]methylpiperidine hydrochloride] showed an IC50 of 1.3 nM.

`COc1ccc2c(c1)CC(CC1CCN(Cc3ccccc3)CC1)C2=O.Cl` (centres unmarked) [Example 28, 1-Benzyl-4-[(5-methoxy-1-indanon)-2-yl]methylpiperidine hydrochloride] registered a concentration for half-maximal inhibition (IC50) of 2.3 nM.

Turning to `CCOc1cc2c(cc1OCC)C(=O)C(F)(CC1CCN(Cc3ccc(C)cc3)CC1)C2` (centres unmarked) [Example 48, 1-(4-methylbenzyl)-4-[(5,6-diethoxy-2-fluoro-1-indanon)-2-yl]methylpiperidine hydrochloride], the half-inhibitory concentration (IC50) is 2.8 nM.

The same experiment, now with this note: result in words, no value given.
In the case of `CCOc1cc2c(cc1OC)C(=O)C(CC1CCN(Cc3ccccc3)CC1)C2.Cl` (centres unmarked) [Example 29, 1-Benzyl-4-[(5-ethoxy-6-methoxy-1-indanon)-2-yl]methylpiperidine hydrochloride], the “sigma receptor binding action” value was “found to have a sigma receptor binding action”.

Take `COc1cc2c(cc1OC)C(=O)C(F)(CCC1CCN(Cc3ccccc3)CC1)C2` (centres unmarked) [Example 60, 1-Benzyl-4-[2-[(5,6-dimethoxy-2-fluoro-1-indanon)-2-yl]ethyl]piperidine]: the “sigma receptor binding action” value was “found to have a sigma receptor binding action”.

In the case of `CCOc1cc2c(cc1OC)C(=O)C(Cl)(CC1CCN(Cc3ccccc3)CC1)C2.Cl` (centres unmarked) [Example 69, 1-Benzyl-4-[(5-ethoxy-6-methoxy-2-chloro-1-indanon)-2-yl]methylpiperidine hydrochloride], the “sigma receptor binding action” value is “found to have a sigma receptor binding action”.

As for `Cl.O=C1c2ccccc2CC1CC1CCN(Cc2ccccc2)CC1` (centres unmarked) [Example 27, 1-Benzyl-4-[(1-indanon)-2-yl]methylpiperidine hydrochloride], the “sigma receptor binding action” value is given as “found to have a sigma receptor binding action”.

Turning to `COc1cc2c(cc1OC)C(=O)C(=CC1CCN(Cc3ccccc3)CC1)C2.Cl` [Example 25, 1-Benzyl-4-[(5,6-dimethoxy-1-indanon)-2-ylidene]methylpiperidine hydrochloride], the “sigma receptor binding action” value is reported as “found to have a sigma receptor binding action”.

Regarding `COc1cc2c(cc1OC)C(=O)C(F)(CC1CCN(CC3CCCCC3)CC1)C2.Cl` (centres unmarked) [Example 66, 1-Cyclohexylmethyl-4-[(5,6-dimethoxy-2-fluoro-1-indanon)-2-yl]methylpiperidine hydrochloride], the “sigma receptor binding action” value is “found to have a sigma receptor binding action”.

For the compound `COc1cc2c(cc1OC)C(=O)C(CCC1CCN(Cc3ccccc3)CC1)C2.Cl` (centres unmarked) [Example 32, 1-Benzyl-4-[2-[(5,6-dimethoxy-1-indanon)-2-yl]ethyl]piperidine hydrochloride], the “sigma receptor binding action” value was “found to have a sigma receptor binding action”.

For the compound `COc1cc2c(cc1OC)C(=O)C(F)(CC1CCN(Cc3cccc(F)c3)CC1)C2.Cl` (centres unmarked) [Example 63, 1-(3-Fluorobenzyl)-4-[(5,6-dimethoxy-2-fluoro-1-indanon)-2-yl]methylpiperidine hydrochloride], the “sigma receptor binding action” value was “found to have a sigma receptor binding action”.

`COc1cc2c(cc1OC)C(=O)C(Cl)(CC1CCN(Cc3ccccc3)CC1)C2.Cl` (centres unmarked) [Example 67, 1-Benzyl-4-[(5,6-dimethoxy-2-chloro-1-indanon)-2-yl]methylpiperidine hydrochloride]: the “sigma receptor binding action” value was “found to have a sigma receptor binding action”.

On to `CCOc1cc2c(cc1OCC)C(=O)C(Cl)(CC1CCN(Cc3ccccc3)CC1)C2.Cl` (centres unmarked) [Example 68, 1-Benzyl-4-[(5,6-diethoxy-2-chloro-1-indanon)-2-yl]methylpiperidine hydrochloride], for which the “sigma receptor binding action” value is “found to have a sigma receptor binding action”.

For the compound `COc1cc2c(cc1OC)C(=O)C(F)(CC1CCN(Cc3cccc(C)c3)CC1)C2.Cl` (centres unmarked) [Example 65, 1-(3-Methylbenzyl)-4-[(5,6-dimethoxy-2-fluoro-1-indanon)-2-yl]methylpiperidine hydrochloride], the “sigma receptor binding action” value was “found to have a sigma receptor binding action”.

For `Cl.O=C1c2ccccc2CC1(F)CC1CCN(Cc2ccccc2)CC1` (centres unmarked) [Example 54, 1-Benzyl-4-[(2-fluoro-1-indanon)-2-yl]methylpiperidine hydrochloride], the “sigma receptor binding action” value is given as “found to have a sigma receptor binding action”.

Regarding `COc1cc2c(cc1OC)C(=O)C(CC1CCN(Cc3cccc(F)c3)CC1)C2.Cl` (centres unmarked) [Example 34, 1-(3-Fluorobenzyl)-4-[(5,6-dimethoxy-1-indanon)-2-yl]methylpiperidine hydrochloride], the “sigma receptor binding action” value is listed as “found to have a sigma receptor binding action”.

With `COc1ccc2c(c1)CC(F)(CC1CCN(Cc3ccccc3)CC1)C2=O.Cl` (centres unmarked) [Example 55, 1-Benzyl-4-[(5-methoxy-2-fluoro-1-indanon)-2-yl]methylpiperidine hydrochloride], the “sigma receptor binding action” value is on record as “found to have a sigma receptor binding action”.

`COc1cc2c(cc1OC)C(=O)C(Br)(CC1CCN(Cc3ccccc3)CC1)C2.Cl` (centres unmarked) [Example 70, 1-Benzyl-4-[(5,6-dimethoxy-2-bromo-1-indanon)-2-yl]methylpiperidine hydrochloride]: the “sigma receptor binding action” value is “found to have a sigma receptor binding action”.

For the compound `COc1cc2c(cc1OC)C(=O)C(CC1CCN(Cc3cccc(C)c3)CC1)C2.Cl` (centres unmarked) [Example 35, 1-(3-Methylbenzyl)-4-[(5,6-dimethoxy-1-indanon)-2-yl]methylpiperidine hydrochloride], the “sigma receptor binding action” value was “found to have a sigma receptor binding action”.

Consider `COc1cc2c(cc1OC)C(=O)C(CC1CCN(CC3CCCCC3)CC1)C2.Cl` (centres unmarked) [Example 36, 1-Cyclohexylmethyl-4-[(5,6-dimethoxy-1-indanon)-2-yl]methylpiperidine hydrochloride], for which the “sigma receptor binding action” value was “found to have a sigma receptor binding action”.

For `COc1cc2c(cc1OC)C(=O)C(F)(C1CCN(Cc3ccccc3)CC1)C2.Cl` (centres unmarked) [Example 59, 1-Benzyl-4-[(5,6-dimethoxy-2-fluoro-1-indanon)-2-yl]piperidine], the “sigma receptor binding action” value was “found to have a sigma receptor binding action”.

`CCOc1cc2c(cc1OCC)C(=O)C(F)(CC1CCN(Cc3ccccc3)CC1)C2.Cl` (centres unmarked) [Example 57, 1-Benzyl-4-[(5,6-diethoxy-2-fluoro-1-indanon)-2-yl]methylpiperidine hydrochloride]: the “sigma receptor binding action” value was “found to have a sigma receptor binding action”.

Take `COc1cc2c(cc1OC)C(=O)C(CCCC1CCN(Cc3ccccc3)CC1)C2.Cl` (centres unmarked) [Example 33, 1-Benzyl-4-[3-[(5,6-dimethoxy-1-indanon)-2-yl]propyl]piperidine hydrochloride]: the “sigma receptor binding action” value is listed as “found to have a sigma receptor binding action”.

As for `CCOc1cc2c(cc1OCC)C(=O)C(=CC1CCN(Cc3ccccc3)CC1)C2.Cl` [Example 26, 1-Benzyl-4-[(5,6-diethoxy-1-indanon)-2-ylidene]methylpiperidine hydrochloride], the “sigma receptor binding action” value was “found to have a sigma receptor binding action”.

Regarding `CCCOc1cc2c(cc1OCCC)C(=O)C(CC1CCN(Cc3ccccc3)CC1)C2.Cl` (centres unmarked) [Example 31, 1-Benzyl-4-[[5,6-di(1-propyloxy)-1-indanon)-2-yl]methylpiperidine hydrochloride], the “sigma receptor binding action” value is “found to have a sigma receptor binding action”.

Turning to `CCCOc1cc2c(cc1OCCC)C(=O)C(F)(CC1CCN(Cc3ccccc3)CC1)C2.Cl` (centres unmarked) [Example 58, 1-Benzyl-4-[[5,6-di(1-propyloxy)-2-fluoro-1-indanon]-2-yl]methylpiperidine hydrochloride], the “sigma receptor binding action” value is listed as “found to have a sigma receptor binding action”.

With `COc1ccc2c(c1)CC(CC1CCN(Cc3ccccc3)CC1)C2=O.Cl` (centres unmarked) [Example 28, 1-Benzyl-4-[(5-methoxy-1-indanon)-2-yl]methylpiperidine hydrochloride], the “sigma receptor binding action” value was “found to have a sigma receptor binding action”.

In the case of `COc1cc2c(cc1OC)C(=O)C(F)(CCCC1CCN(Cc3ccccc3)CC1)C2.Cl` (centres unmarked) [Example 61, 1-Benzyl-4-[3-[(5,6-dimethoxy-2-fluoro-1-indanon)-2-yl]propyl]piperidinepiperidine hydrochloride], the “sigma receptor binding action” value is recorded as “found to have a sigma receptor binding action”.

For the compound `COc1cc2c(cc1OC)C(=O)C(F)(CC1CCN(Cc3ccccc3)CC1)C2.Cl` (centres unmarked) [Example 56, 1-Benzyl-4-[(5,6-dimethoxy-2-fluoro-1-indanon)-2-yl]methylpiperidine hydrochloride], the “sigma receptor binding action” value was “found to have a sigma receptor binding action”.
